Measured values reported in US8679526B2, “Antimicrobial peroxidase compositions” (Flen Pharma N.V., priority 2005, dated 2014).

Tests used:
S. aureus = experiment: Antibacterial activity on S. aureus of oxidase/peroxidase with enhancing agents; assay type: cell-based, Staphylococcus aureus
Experimental: Bacterial cells (S. aureus) were plated on Trypticase Soybean Agar plates (Becton Dickinson) and incubated overnight at 37° C. Cells were recovered from plates and mixed with NaCl-peptone broth buffer (Merck). The amount of medium is adjusted to give a bacterial suspension with a cell density of OD600=0.25 for bacteria.
For the examples described in the following examples, a fresh dilution of 0.25% (v/v) enzyme-substrate (Biovert™) stock solutions were prepared for each independent test. The Biovert™ enzyme stock solution contains 1527 U/ml lactoperoxidase; 2016 U/ml glucose oxidase; the Biovert™ substrate stock solution comprises: 55% (w/v) glucose, 0.51% (w/v) KSCN, 0.73% (w/v) KI.
In order to assess the synergistic action of the enhancing agent on the enzyme-substrate enhancing agent, the concentration of enzyme-substrate was adjusted to obtain conditions wherein the oxidase/peroxidase in a hydrogel performs limited but measurable antibacterial activity. The above mentioned (0.25% (v/v)) solution has accordingly been further diluted to 0.017% (v/v).
A 0.33% (w/v) Na-alginaat (Kelset), 0.66% (v/v) PEG400 gel solution was prepared in water, autoclaved and subsequently cooled to room temperature.
For the antibacterial assay the following components are mixed: 100 μl of bacterial cell suspension, 100 μl enzyme-substrate master solution (0.25%), 1 g (=1 ml) gel solution, 0.1-1 mg enhancing agent, 300 μl milliQ water. Final concentrations of the enzyme/substrate in the reaction mixture are 0.015 U/ml glucose oxidase, 0.011 U/ml lactoperoxidase, 0.00007% (w/v) potassium thiocyanate, 0.0001% (w/v) potassium iodide, 0.0076% glucose, and 0.066-0.66 mg/ml enhancing agent.

[1] = DPPH-radical bleaching assay
Experimental: DPPH (1,1-DiPhenyl-2-PicrylHydrazyl) is a cell-permeable, stable free radical that acts as a hydrogen radical scavenger, and is used as a screening tool for detecting free radical scavenging activity of antioxidants. When a radical solution is brought into contact with an antioxidant, the radical-molecule is reduced and thereby looses its characteristic purple colour. This “bleaching” can be monitored by spectrophotometric analysis.
A DPPH-radical solution (15 mg/ml) was prepared freshly in 1-octanol (Sigma) and 900 μl aliquots were transferred to 2 ml spectrophotometer cuvettes. 100 μl of 50 mMole/liter solutions of enhancing agents (dissolved in 1-octanol) were added to the solution (final concentration of the enhancing agents is 5 mMole/liter). Spectrophotometric analysis of the samples was carried out within 5 minutes, in order to prevent quenching caused by free (e.g. air born) radicals.

Beta-carotene assay = experiment: Beta-carotene assay
Experimental: In this assay, the antioxidant activity of a component is assessed by its ability to prevent bleaching of a beta-carotene solution by radicals formed upon illumination.
A beta-carotene solution (20 mg/ml) was prepared freshly in 1-octanol (Sigma) and 900 μl aliquots were transferred to 2 ml spectrophotometer cuvettes. 100 μl of 50 mMole/liter solutions of enhancing agents of the invention (dissolved in 1-octanol) were added to the solution (final concentration of the enhancing agents is 5 mMole/liter). The solutions were illuminated for up to 5 hours and spectrophotometric analysis was carried out at indicated time points.

[2] = tested on: MRSA (methicillin resistant S. aureus) bacteria; experiment: Antibacterial activity on MRSA of oxidase/peroxidase with enhancing agents; assay type: cell-based, Staphylococcus aureus
Experimental: The effect of vanillin and guaiacol on the peroxidase/oxidase activity was assayed on MRSA (methicillin resistant S. aureus) bacteria using growth conditions and assay conditions as described in example 1.

E. coli = experiment: Antibacterial activity on E. coli of enhancing agents and oxidase/peroxidase; assay type: cell-based, Escherichia coli; conditions: FIG. 7; 6 hours of incubation
Experimental: Experiments using the conditions described in Example 1 and 2 were performed with Gram-negative bacteria (E. coli).

[3] = tested on: MRSA (Methicillin-Resistant Staphylococcus aureus); experiment: Growth retardation of MRSA in TS broth with enzyme/substrate system; assay type: cell-based; conditions: FIG. 8; 0.08% dilution of enzyme/substrate
Experimental: A bacterial cell culture (A600=0.02) was grown in Tryptic Soy (TS) broth (Difco™, Becton Dickinson) in the presence of a 0.08% dilution (suboptimal concentration) of the enzyme/substrate system described in example 1. […] (see FIG. 8). It is observed that this effect is maintained for a significant time period.

Candida albicans = experiment: Growth retardation of Candida albicans in SD broth with enzyme/substrate system; assay type: cell-based; conditions: FIG. 9; 0.02% dilution of enzyme/substrate
Experimental: A yeast cell culture (A600=0.05) was grown in Sabouraud Dextrose (SD) broth (Difco™, Becton Dickinson) in the presence of a 0.02% dilution (suboptimal concentration) of the enzyme/substrate system described in example 1.

[4] = tested on: HaCat keratinocytes cells; experiment: Cell toxicity (MTT) of oxidase/peroxidase alginate gel with guaiacol; assay type: cell-based; conditions: 200 μM guaiacol in gel, diluted 1 g in 9 ml, 24 hours; p=0.31
Experimental: (§1) HaCat keratinocytes cells and mouse 3T3 fibroblast cells were grown in the following growth medium: DMEM medium (high glucose; Sigma) supplemented with heat inactivated calf serum (10%) (Life Technologies), L-glutamine (4 mM) (Sigma) and Streptomycin/Penicillin (100 U) (Sigma). […] As a control an identical gel without guaiacol was prepared. One gram of the alginate gel was dissolved in 9 ml growth medium (diluted alginate gel). Cells were seeded at subconfluency. After overnight incubation at 37° C., 5% CO2, growth medium was replaced by diluted alginate gel and the cells were incubated at 37° C., 5% CO2 for another 24 hours. […] Cells were incubated in this MTT-medium for an additional 3 h. Cell viability and metabolism was assayed by determining the chromophoric conversion product of MMT at 570 nm.

[5] = tested on: mouse 3T3 fibroblast cells; experiment: as above; assay type: cell-based; conditions: 200 μM guaiacol in gel, diluted 1 g in 9 ml, 24 hours; p=0.32
Experimental: as §1

SMILES: COc1ccccc1O [Guaiacol, 2-methoxyphenol]
- bactericidal capacity when mixed with the enzyme-substrate solution (S. aureus; FIG. 1, enhancing agent and ES): markedly enhanced the bactericidal capacity
- effect on cell survival of the separate systems (S. aureus; FIG. 1, enhancing agent only): only moderately affected cell survival
- Enhancing effect on oxidase/peroxidase assay (S. aureus; antimicrobial effect): +
- Antioxidant properties: DPPH assay ([1]; 5 mMole/liter in 1-octanol): +++
- potency as reducer / antioxidant efficiency ([1]; FIG. 4): nearly as efficient as gallic acid and propyl gallate
- Antioxidant properties: Beta-carotene assay (Beta-carotene assay; 5 mMole/liter in 1-octanol): ++
- antioxidant performance in the beta carotene bleaching assay (Beta-carotene assay; FIG. 3): very effective
- enhancing effect on the peroxidase/oxidase activity ([2]; FIG. 5, ES + enhancing agent): enhancing effect
- antibacterial effect of compound alone ([2]; FIG. 5, enhancing agent alone): limited effect
- enhancing effect on peroxidase/oxidase activity ([2]; FIG. 6, different concentrations of guaiacol): significant enhancing effect
- antibacterial effectiveness in combination with the enzyme-substrate (E. coli): more effective than enzyme-substrate alone
- suppression of bacterial growth on addition to enzyme/substrate system [3]: additional suppression of the bacterial growth
- suppression of fungal growth on addition to enzyme/substrate system (Candida albicans): additional suppression of the fungal growth
- metabolic activity of cells (MTT), alginate hydrogel with versus without guaiacol [4]: no statistical difference
- metabolic activity of cells (MTT), alginate hydrogel with versus without guaiacol [5]: no statistical difference
